Results published in patent US12503617B2, “Ink jet ink composition and recording method” (SEIKO EPSON CORPORATION, priority 2022, dated 2025).

Assay: Solubility in 100 g of water at 20° C.

For `CC(CO)(CO)CO` [trimethylolethane], the solubility was “approximately 60 g/100 g of water”.
